# Experimental data taken from US10472391B2 (priority 2013, dated 2019).
# pIC50: −log10 of the molar value.
# Key:
# [1] = test system: A549 cells; format: cell-based
# [2] = test system: Hla-mediated cytotoxicity; details: cited from earlier work
# [3] = molecular target: T1, ADAM10 (Homo sapiens, UniProt O14672); experiment: IC50 of GI254023X (assay not given)
# T1 sequence (O14672 214-748): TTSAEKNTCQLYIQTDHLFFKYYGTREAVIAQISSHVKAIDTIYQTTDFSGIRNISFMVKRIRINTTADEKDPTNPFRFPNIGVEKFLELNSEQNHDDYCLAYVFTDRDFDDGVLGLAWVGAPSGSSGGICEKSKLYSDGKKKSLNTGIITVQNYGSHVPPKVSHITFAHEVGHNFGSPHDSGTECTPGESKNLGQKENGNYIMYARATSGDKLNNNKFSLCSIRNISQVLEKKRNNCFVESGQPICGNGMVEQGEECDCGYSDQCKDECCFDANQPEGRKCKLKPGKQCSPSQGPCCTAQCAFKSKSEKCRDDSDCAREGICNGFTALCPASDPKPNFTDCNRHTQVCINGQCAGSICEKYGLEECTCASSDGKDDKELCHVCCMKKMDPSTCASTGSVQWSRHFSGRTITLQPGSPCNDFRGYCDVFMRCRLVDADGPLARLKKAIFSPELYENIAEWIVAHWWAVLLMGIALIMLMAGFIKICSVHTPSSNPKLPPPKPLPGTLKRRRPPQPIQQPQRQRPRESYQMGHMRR
smiles,measurement,setting,value
"CNC(=O)[C@@H](NC(=O)[C@H](CCCc1ccccc1)[C@H](C)N(O)C=O)C(C)(C)C [GI254023X, (R)—N—((S)-3,3-dimethyl-1-(methylamino)-1-oxobutan-2-yl)-2-((S)-1-(N-hydroxyformamido)-ethyl)-5-phenylpentanamide]",inhibition of binding of radiolabelled Hla to A549 cells,[1],inhibition of binding of radiolabelled Hla to A549 cells
same,effect on Hla-mediated cytotoxicity,[2],prevents Hla-mediated cytotoxicity
same,pIC50,[3],~5.30
